Data on 7 compounds can be found in patent publication EP0429333B1, “Process for producing oxazopyrroloquinolines, novel oxazopyrroloquinolines, and use of oxazopyrroloquinolines” (priority 1989, dated 1991).

One may read the inhibition as the drop in the measured response relative to a control, in per cent.

The nature of data set [1]: Solubility of the isolated compound, described in words. Format: physicochemical. As to conditions: for solubility in water / solubility under neutral and alkaline conditions: water.
Data set [2] concerns the target aldose reductase of kidney (Canis lupus familiaris, UniProt A0A8I3P2L6). The experiment in a line: Inhibitory effect on aldose reductase of kidney. The conditions noted are these: read-out: Degree of inhibition for aldose reductase (%); for inhibition at 10 µM: concentration 1x10^-5 M; for inhibition at 1 µM: concentration 1x10^-6 M; for inhibition at 2 µM: concentration 2x10^-6 M; for inhibition at 5 µM: concentration 5x10^-6 M; for inhibition at 0.2 µM: concentration 2x10^-7 M; for inhibition at 0.5 µM: concentration 5x10^-7 M. Format: biochemical, dog. How it is done: Medulla of kidney of dog was homogenized with 10mM phosphoric acid buffer (pH 7.0) containing 2mM dithiothreitol in an amount of four times the volume of kidney medulla and subjected to centrifugation. The supernatant liquid was purified by affinity chromatography, gel filtration and chromatofocusing to obtain electrophoretically homogeneous aldose reductase. 0.05 ml of 3mM NADPH, 0.1 ml of DL-glyceraldehyde and 0.04 ml of distilled water were added to 0.8 ml of 0.1M phosphoric acid buffer (pH 6.2) and left to stand at 25°C for 3 minutes. Then, 0.01 ml of the aldose reductase solution was added thereto to start reaction and decreasing of absorbance of 340 nm was measured at 25°C with time. Amount of enzyme which consumes 1 µmole of NADPH for 1 minute was taken as 1 unit.

Data set [3] has as its target T1, aldose reductase of rabbit lens (Oryctolagus cuniculus, UniProt P15122).
T1 construct: to obtain electrophoretically homogeneous aldose reductase; from tissue; host or cells: rabbit lens
The experiment in a line: Inhibitory effect on aldose reductase of lens. The class given is biochemical. The conditions noted are these: read-out: Degree of inhibition for aldose reductase (%); for inhibition at 1 µM: concentration 1x10^-6 M; for inhibition at 0.5 µM: concentration 5x10^-7 M. How it is done:
0.05 ml of 3mM NADPH, 0.1 ml of DL-glyceraldehyde and 0.04 ml of distilled water were added to 0.8 ml of 0.1M phosphoric acid buffer (pH 6.2) and left to stand at 25°C for 3 minutes. Then, 0.01 ml of the aldose reductase solution was added thereto to start reaction and decreasing of absorbance of 340 nm was measured at 25°C with time. Amount of enzyme which consumes 1 µmole of NADPH for 1 minute was taken as 1 unit.
Enzyme activity was measured under the same conditions as in the above measurement of aldose reductase activity except that 0.04 ml of aqueous solution of inhibitory substance in various concentrations was added in place of 0.04 ml of distilled water and degree of inhibition was calculated from comparison of the enzyme activity with the enzyme activity obtained in the absence of inhibitor. (1) OPQ, (2) methyl OPQ, (3) 1-methylpropyl OPQ, (4) 2-methylpropyl OPQ, (5) 2-carbamoylethyl OPQ, (6) hydroxymethyl OPQ, (7) 2-methylthioethyl OPQ, (8) 2-carboxyethyl OPQ, (9) 4-hydroxybenzyl OPQ, (10) 1-methylethyl OPQ, and (11) benzyl OPQ were used as inhibition substances and (12) PQQ was used as control.
Lens of rabbit was homogenized with 10mM phosphoric acid buffer (pH 7.0) containing 2mM dithiothreitol in an amount of two times the volume of the lens and subjected to centrifugation. The supernatant liquid was purified by affinity chromatography, gel filtration and chromatofocusing to obtain electrophoretically homogeneous aldose reductase. Using (1) OPQ, (2) 1-methylpropyl OPQ, (3) 2-methylpropyl OPQ, (4) hydroxymethyl OPQ, and (5) 1-methylethyl OPQ as inhibition substances, degree of inhibition of these substances for aldose reductase of rabbit lens was examined in the same manner in Example 32.

Another data set concerns kidney. The experiment in a line: Toxicity to kidney determined by blood examination. The conditions noted are these: conclusion from the blood examinations (a) and (b). The class given is in vivo, mice. How it is done: After one day from administration, the mice were fasted (only water was given) and after lapse of 18 hours, blood was collected and serum was obtained therefrom. Glucose, urea nitrogen and creatinine in the serum were examined using FUJI Dry Chemslide (manufactured by Fuji Photo Film Co., Ltd.). […]
Thereafter, the mice were fasted (with giving only water) and after lapse of 18 hours, blood was collected and serum was obtained therefrom. Contents of glucose, urea nitrogen and creatinine in serum were obtained using FUJI Dry Chemslide. The results were shown by average value for eight mice.

Take `O=C(O)c1cc(C(=O)O)c2c(n1)c1nc(Cc3ccc(O)cc3)oc1c1cc(C(=O)O)[nH]c12` [4-Hydroxybenzyl OPQ, 5-(4-Hydroxybenzyl)-2,8,10-tricarboxy-1H-oxazo[5,4-h]-pyrrolo[2,3-f]quinoline]: in data set [1], the “solubility in acetone and diethyl ether” value is on record as “did not dissolve”; the “solubility in lower alcohols” value is recorded as “dissolved”; the solubility in water result was “easily soluble”; the “solubility under neutral and alkaline conditions” value was “especially soluble”. In data set [2], the inhibition at 10 µM was found to be 89%, the inhibition at 1 µM was 38.6%, the inhibition at 2 µM was found to be 49.4% and the inhibition at 5 µM came to 71.3%.

Take `CC(C)Cc1nc2c3nc(C(=O)O)cc(C(=O)O)c3c3[nH]c(C(=O)O)cc3c2o1` [2-Methylpropyl OPQ, 5-(2-Methylpropyl)-2,8,10-tricarboxy-1H-oxazo[5,4-h]-pyrrolo[2,3-f]quinoline]: in data set [3], the inhibition at 1 µM was determined as 69.8% and the inhibition at 0.5 µM worked out at 57.2%. Further, the inhibition at 0.1 µM in data set [3] (concentration 1x10^-7 M) is 27%. For the same compound, the inhibition at 0.2 µM in data set [3] (concentration 2x10^-7 M) worked out at 34.9%. In addition, in data set [1], the “solubility in acetone and diethyl ether” value is given as “did not dissolve”; the “solubility in lower alcohols” value is reported as “dissolved”; the solubility in water entry was “easily soluble”; the “solubility under neutral and alkaline conditions” value is “very easily soluble”. Further, in data set [2], the inhibition at 1 µM was 63.1%, the inhibition at 0.2 µM stood at 30.2% and the inhibition at 0.5 µM is 44.1%.

Take `NC(=O)CCc1nc2c3nc(C(=O)O)cc(C(=O)O)c3c3[nH]c(C(=O)O)cc3c2o1` [2-Carbamoylethyl OPQ, 5-(2-Carbamoylethyl)-2,8,10-tricarboxy-1H-oxazo[5,4-h]-pyrrolo[2,3-f]quinoline]: in data set [1], the “solubility in acetone and diethyl ether” value is on record as “did not dissolve”; the “solubility in lower alcohols” value is “dissolved”; the solubility in water result was “easily soluble”; the “solubility under neutral and alkaline conditions” value is listed as “very easily soluble”. Further, in data set [2], the inhibition at 1 µM was found to be 59.6%, the inhibition at 2 µM was 75.7%, the inhibition at 5 µM stood at 89.1% and the inhibition at 0.5 µM was 44.7%.

As for `Cc1nc2c3nc(C(=O)O)cc(C(=O)O)c3c3[nH]c(C(=O)O)cc3c2o1` [Methyl OPQ, 5-Methyl-2,8,10-tricarboxy-1H-oxazo[5,4-h]-pyrrolo-[2,3-f]quinoline], in data set [1], the “solubility in acetone and diethyl ether” value is “did not dissolve”; the “solubility in lower alcohols” value is “dissolved”; the solubility in water result is on record as “easily soluble”; the “solubility under neutral and alkaline conditions” value was “very easily soluble”. For the same compound, in data set [2], the inhibition at 1 µM came to 92.1%, the inhibition at 0.2 µM turned out to be 31.4% and the inhibition at 0.5 µM was 73.6%. The inhibition at 0.1 µM in data set [2] (concentration 1x10^-7 M) came to 25%.

On to `O=C(O)CCc1nc2c3nc(C(=O)O)cc(C(=O)O)c3c3[nH]c(C(=O)O)cc3c2o1` [2-Carboxyethyl OPQ, 5-(2-Carboxyethyl)-2,8,10-tricarboxy-1H-oxazo[5,4-h]-pyrrolo[2,3-f]quinoline], for which, in data set [1], the “solubility in acetone and diethyl ether” value is “did not dissolve”; the “solubility in lower alcohols” value is listed as “dissolved”; the solubility in water entry was “easily soluble”; the “solubility under neutral and alkaline conditions” value is given as “very easily soluble”. Besides, in data set [2], the inhibition at 10 µM was determined as 58.5%, the inhibition at 1 µM worked out at 48%, the inhibition at 2 µM was 49.9% and the inhibition at 5 µM turned out to be 55%. Moreover, in data set [2], the inhibition at 0.5 µM came to 22.5%.

With `O=C(O)c1cc(C(=O)O)c2c(n1)C(=O)C(=O)c1cc(C(=O)O)[nH]c1-2` [PQQ, pyrroloquinolinequinone, reference compound], the toxicity to kidney result with kidney was “showed toxicity to kidney”. Also, in data set [2], the inhibition at 10 µM turned out to be 64.4%, the inhibition at 2 µM amounted to 17.3% and the inhibition at 5 µM is 42.8%.

Take `CC(C)c1nc2c3nc(C(=O)O)cc(C(=O)O)c3c3[nH]c(C(=O)O)cc3c2o1` [1-Methylethyl OPQ, 5-(1-Methylethyl)-2,8,10-tricarboxy-1H-oxazo[5,4-h]-pyrrolo[2,3-f]quinoline]: in data set [3], the inhibition at 1 µM amounted to 43.3% and the inhibition at 0.5 µM was 33%. Also, the inhibition at 2 µM in data set [3] (concentration 2x10^-6 M) was 51.9%. Besides, the inhibition at 5 µM in data set [3] (concentration 5x10^-6 M) was found to be 68.4%. Also, in data set [1], the “solubility in acetone and diethyl ether” value is “did not dissolve”; the “solubility in lower alcohols” value is “dissolved”; the solubility in water result is recorded as “easily soluble”; the “solubility under neutral and alkaline conditions” value is reported as “very easily soluble”. Moreover, in data set [2], the inhibition at 1 µM stood at 30.5%, the inhibition at 2 µM is 48.1% and the inhibition at 5 µM came out at 68.2%.
